Experimental data: patent US4140777A, “Cerebral vasodilating 6-substituted vincamines” (Enrico Corvi Mora, priority 1976, dated 1979)
Counter-ions that a name gives are not always drawn.

Legend:
Format in all cases: in vivo
[1] = Acute toxicity per intraperitoneal route (LD50, method of Litchfield and Wilcoxon; Gleason classification); details: in vivo, ip; Swiss male mouse, suspension in 1% carboxymethylcellulose, observation 8 days
Protocol: (§1) The acute toxicity was assessed in the mouse of the Swiss type, having an average body weight of 20 g and of male sex, groups of 5 animals being used, according to the method of Litchfield and Wilcoxon (observation time: 8 days). The compounds were administered as a suspension in 1% carboxymethylcellulose.
(§2) The acute toxicity was low for all the examined compounds, as confirmed by the following table, in which those of the vincamine HCl and of the apovincamine are also reported.
(§3) In fact, for all the compounds, the toxicity, when evaluated according to the method of Gleason, can be classified as light, modest or negligible.

vertebral arteria = test: Variation of the hematic flow at the vertebral arteria after i.v. administration (cerebral vasodilating activity); details: anestetized dog, i.v. (femoral vein) 5 mg/kg, left vertebral arteria, electromagnetic flowmeters
Text: The cerebral vasodilating activity was studied in the anestetized dog, by measuring, by means of Statham periarterial electromagnetic flowmeters, the hematic flow at the level of the vertebral arteria which, in such animal species, constitutes the greatest blood supply to the brain.
The results are reported in the TABLE as the percent variations of the flow measured at the level of the left vertebral arteria after the administration of the several compounds to be tested to groups of 4 animals for each compound. The results also confirm that the compounds of the invention are all endowed with a vasodilating activity at the level of the cerebral circulus. Such an action for some compounds is more relevant with respect to that of vincamine and of apovincamine.

mouse of the Swiss type = test: Acute toxicity per intraperitoneal route (LD50, method of Litchfield and Wilcoxon; Gleason classification); details: Gleason toxicity class, mouse i.p.
Protocol: as §1, §2, §3

[2] = Absorption: hematic levels at different times from the oral administration; details: blood, 100 mg/kg expressed as vincamine and apovincamine, suspension in 5% carboxymethyl cellulose, chromatographic method, read-out: max. conc. time (converted)
Protocol: All the compounds have been orally administered at the dosage of 100 mg/kg, expressed as vincamine and apovincamine, in form of a suspension in a 5% carboxymethyl cellulose solution.
The absorption was determined by evaluating the hematic levels at the following times (minutes): 0, 30, 120, 240, 480, 10 hours and 12 hours, at which it was possible to assess the time, from the administration, of the maximum hematic concentration.
The vincamine and apovincamine concentrations were assessed by chromatographic method.
For the evaluation of the prolonged action the following criterium was adopted; as derivatives having a long-acting effect, there are considered those which, 120 minutes after the administration, show hematic levels higher than those obtained with vincamine and apovincamine.

Row | Structure (SMILES) | LD50 at 192 h [1] [mg/kg] | Percent variations of the hematic flow at the vertebral arteria (vertebral arteria) | Tox (Gleason) (mouse of the Swiss type) | Tmax [2] [min]
1 | CC[C@]12CCCN3CC(=O)c4c(n(c5ccccc45)C(=O)C1)[C@@H]32 [6-ketovincamone] | > 2000 | +30.2% | – | –
2 | CC[C@@]12C=C(C(=O)OC)n3c4c(c5ccccc53)C(=O)CN(CCC1)[C@H]42 [6-ketoapovincamine] | > 2000 | +29.2% | – | –
3 | CC[C@]12CCCN3CC(O)c4c(n(c5ccccc45)C(O)(C(=O)OC)C1)[C@@H]32 (some centres unmarked) [6-hydroxyvincamine] | 900 | +33.4% | modest | –
4 | CC[C@@]12C=C(C(=O)OC)n3c4c(c5ccccc53)CCN(CCC1)[C@H]42 [Apovincamine, reference compound] | > 2000 | +25.6% | negligible | 60
5 | CC[C@]12CCCN3CC(=O)c4c(n(c5ccccc45)C(O)(CO)C1)[C@@H]32 (some centres unmarked) [6-ketovincaminol] | 1500 | +30.2% | light | –
6 | CC[C@]12CCCN3CCc4c(n(c5ccccc45)[C@@](O)(C(=O)OC)C1)[C@@H]32 [Vincamine HCl, reference compound] | 800 | +24.1% | modest | 20
7 | CC[C@]12CCCN3CC(=O)c4c(n(c5ccccc45)[C@@](O)(C(=O)OC)C1)[C@@H]32 [6-ketovincamine] | > 2000 | +28.4% | – | –
8 | CC[C@]12CCCN3CC(=O)c4c(n(c5ccccc45)[C@](O)(C(=O)OC)C1)[C@@H]32 [6-keto-16-epivincamine] | > 2000 | +35.7% | negligible | –
